In patent US20230022575A1, “BACTERIAL CONJUGATIVE SYSTEM AND THERAPEUTIC USES THEREOF” (SOCIÉTÉ DE COMMERCIALISATION DES PRODUITS DE LA RECHERCHE …, priority 2018, published 2023):
≈ marks a conversion by molar mass, not a printed value.

Legend:
[1] = tested on: EcN; assay: Minimal inhibitory concentration (MIC) of EcN strains; format: cell-based, Escherichia coli Nissle 1917; conditions: Escherichia coli; strain EcN
[2] = tested on: KN01; assay: as above; format: cell-based, Escherichia coli Nissle 1917; conditions: Escherichia coli, read-out: Minimal inhibitory concentration (MIC)
[3] = tested on: KN02; assay: as above; format: cell-based, Escherichia coli Nissle 1917; conditions: Escherichia coli, read-out: Minimal inhibitory concentration (MIC)
[4] = tested on: endogenous Enterobacteriaceae; assay: Streptomycin treatment and EcN (KN01) colonization of the murine gut; format: in vivo, mouse; conditions: 1 g/L of Sm in drinking water, mice
Experimental: FIGS. 3.A to G. Streptomycin (Sm) treatment improves mouse gut colonization by Escherichia coli Nissle 1917 (EcN). The ability of different Sm concentrations to deplete endogenous Enterobacteriaceae (white area) and to promote EcN colonization (gray area) was evaluated by quantifying CFU in feces from mice treated with 0 mg/L (FIG. 3.A), 50 mg/L (FIG. 3.B), 100 mg/L (FIG. 3.C), 250 mg/L (FIG. 3.D), 450 mg/L (FIG. 3.E) and 1000 mg/L (FIG. 3.F) in drinking water starting at day −2. The colonization levels of KN01 in several sections of the intestinal tract of untreated (0) and streptomycin-treated ( ) mice was evaluated (FIG. 3.G). […]
Mouse model. All mice-related protocols were designed in compliance with our institution Animal Care Comity Guidelines and were strictly evaluated to avoid animal suffering. […] Animal weight and health was monitored daily throughout each experiment. […] For Sm treated mice groups, Sm working concentration was first evaluated to maximize Enterobacteriaceae clearance and EcN colonization (Kotula et al., 2014). […] Bacterial load was monitored in feces sampling at specified time points. […] Animals were then dissected to reveal the colonization pattern and gut bacterial content was evaluated by CFU. […]
Feces and tissues processing. […] CFUs/mg sample were calculated as a function of the sample measured weight. […]

Row | Compound | MIC [1] | MIC [2] | MIC [3] | Enterobacteriaceae clearance and KN01 colonization [4]
1 | O=C(N[C@H](CO)[C@H](O)c1ccc([N+](=O)[O-])cc1)C(Cl)Cl [Cm, chloramphenicol] | < 8 µg/mL | < 8 µg/mL | 264 µg/mL (≈ 817 µM) | 
2 | CC1(C)S[C@@H]2[C@H](NC(=O)[C@H](N)c3ccccc3)C(=O)N2[C@H]1C(=O)O [Ap, ampicillin] | < 25 µg/mL | < 25 µg/mL | < 25 µg/mL | 
3 | [H]/N=C(/N)N[C@H]1[C@H](O)[C@@H](O)[C@H](O[C@@H]2O[C@@H](C)[C@](O)(C=O)[C@H]2O[C@@H]2O[C@@H](CO)[C@H](O)[C@@H](O)[C@@H]2NC)[C@@H](N/C(N)=N\[H])[C@@H]1O [Sm, streptomycin] | 25 µg/mL (≈ 43 µM) | 800 µg/mL (≈ 1380 µM) | > 1600 µg/mL | cleared Enterobactericeae while allowing stable colonization of the KN01 strain
4 | CN[C@@H]1[C@H](O)[C@H](NC)[C@H]2O[C@@]3(O)C(=O)C[C@@H](C)O[C@H]3O[C@@H]2[C@H]1O [Sp, spectinomycin] | 50 µg/mL (≈ 150 µM) | 3000 µg/mL (≈ 9030 µM) |  | 
